Reference: paper PMC2936744 (PLoS Pathogens, 2010)
Like-named read-outs stand apart in the source and are kept apart here.

Experiments:
HCVcc-1b/2a = type: cell-based, hepatitis C virus
HCV entry = type: cell-based, hepatitis C virus
HCVpp-1b = test: Inhibitor time-of-addition / attachment vs post-attachment assay, Huh-H1 cells
Description: Huh-H1 cells were seeded at 5×10^3 cells/well in 96-well plates. The following day the plates were chilled to 4°C and the media was removed and replaced with HCVpp inoculum in a volume of 50 µl. Plates were incubated at 4°C for 1.5 hr on a rocking platform. The inoculum was removed and unbound virus was removed by 2 washes with 4°C media. Fresh media was added and the plates were shifted to a 37°C incubator. […] At 3 days post infection, firefly luciferase activity was quantified using the Steady-Glo Reagent (Promega) according to the manufacturer's instructions. Experiments were done in triplicate and the mean % inhibition was calculated relative to control infections lacking inhibitor.

HCVcc-1a/2a-Rluc = type: cell-based, hepatitis C virus; details: mean of 8 independent experiments
VSVpp = test: microbe, parasite or virus in culture; type: cell-based; details: Vesicular stomatitis virus, Huh-H1, read-out: EC50 VSVpp
HCVcc-2a/2a-Rluc = type: cell-based
[1] = type: cell-based; details: human, Huh-7.5 cells
HCVcc-1a/2a = details: 0.5 µM EI-1 in agarose overlay
Description: An assay incorporating a semisolid medium was used to access cell-to-cell spread as described [57]. HCVcc-1a/c2a was added to 1.6×10^4 Huh-7.5 cells at 0.001 ffu/cell incubated at 37°C. […] Cells were incubated at 37°C for 2, 3 or 4 days at which time the agarose was removed and the infected cells were detected using indirect immunofluorescence for the HCV core protein as described above. The mean number of infected cells/ffu was determined from ≥100 foci for each data point.

in vitro [2] = details: bovine
Description: (§1) In addition, compound-induced cytotoxicity in each cell line used for the infection assays was measured.

in vitro [3] = details: dog
Description: as §1

in vitro [4] = details: human
Description: as §1

BVDV = test: microbe, parasite or virus in culture; details: Bovine viral diarrhea virus isolates and strains, read-out: EC50 BVDV
Description: (§2) BVDV cell protection assays were performed essentially as described [54] by infecting MDBK cells with 0.1 pfu/cell of BVDV strain NADL. Infected cells were incubated at 37°C for 3 days and virus-induced cytopathicity was measured using the Cell Titer-Glo reagent (Promega). HIV assays were performed as described [55] by infecting MT2 cells with 0.05 pfu/cell of the NL4-3 strain of HIV (NIH Research and Reference Reagent Program) containing the Renilla luciferase gene (NL-Rluc) in the Nef locus. Infected cells were incubated at 37°C for 5 days and virus replication was measured by reverse transcriptase assay using a scintillation proximity assay as described [55].

HIV = test: microbe, parasite or virus in culture; details: Human immunodeficiency virus 1, MT2, read-out: EC50 HIV
Description: as §2

## COC(=O)N[C@H](C(=O)N1CCC[C@H]1c1nc(-c2ccc(-c3ccc(-c4c[nH]c([C@@H]5CCCN5C(=O)[C@@H](NC(=O)OC)C(C)C)n4)cc3)cc2)c[nH]1)C(C)C [BMS-790052, reference compound]
HCVcc-1b/2a
  virus release, inhibitor added 5 hours post infection (post entry; in words): prevented virus release

## CCCCCCCCO[C@@H]1O[C@H](CO)[C@@H](O)[C@H](O)[C@H]1O [β-OG, n-octyl-β-D-glucoside]
HCV entry
  inhibition of HCV entry (in words): did not inhibit

## CO/C1=C\C(C)=C\[C@@H](C)[C@@H](O)[C@@H](C)C/C(C)=C/C=C/[C@H](OC)[C@@H]([C@@H](C)[C@@H](O)[C@H](C)[C@@]2(O)C[C@@H](O)[C@H](C)[C@@H](C(C)C)O2)OC1=O [bafilomycin, bafilomycin A1, reference compound]
HCVpp-1b; 10 nM bafilomycin A1
  time after the 37°C temperature shift at which sensitivity to the inhibitor was lost: ≥ 3 h
HCVpp-1b; heparin 200 µg/ml, anti-CD81 monoclonal antibody 2 µg/ml, bafilomycin A1 10 nM
  stage of entry at which the control inhibitor is effective (in words): only effective during the post-attachment stage

## C=C[C@@H]1C[C@]1(NC(=O)[C@@H]1C[C@@H](Oc2nccc3cc(OC)ccc23)CN1C(=O)[C@@H](NC(=O)OC(C)(C)C)C(C)(C)C)C(=O)NS(=O)(=O)C1CC1 [BMS-605339]
HCVcc-1a/2a-Rluc
  EC50: 0.123 µM

## CCCCCNc1nc(Nc2ccc([N+](=O)[O-])cc2)nc(OCC(F)(F)F)n1 [EI-1, N ^2-(4-nitrophenyl)-N ^4-pentyl-6-(2,2,2-trifluoroethoxy)-1,3,5-triazine-2,4-diamine]
VSVpp
  EC50: 33 µM
HCVcc-2a/2a-Rluc
  activity against genotype 2a/2a chimeric virus (in words): not active
[1]
  CC50: > 50 µM
HCVcc-1b/2a
  progeny virus release, inhibitor present during entry (in words): dose-dependent reduction
  virus release, inhibitor added 5 hours post infection (post entry; in words): did not affect the levels of virion particles or infectious virus produced
HCVcc-1a/2a
  cell-to-cell transmission (in words): abrogated
In vitro [2]
  CC50: > 50 µM
In vitro [3]
  CC50: > 50 µM
In vitro [4]
  CC50: > 50 µM
BVDV
  EC50: > 50 µM
HIV
  EC50: 23.4 µM
HCVpp-1b; 0.125 µM EI-1
  effect on the attachment of HCVpp to HSPGs (inhibitor during 4°C step only; in words): little effect
HCVpp-1b; 0.125 µM EI-1 added at intervals after 37°C shift
  time of infection within which inhibition is exerted: ≤ 3 h
HCVpp-1b; Hepatitis C virus, Huh-H1, read-out: inhibition when inhibitor present during the 37°C phase only (post-attachment)
  inhibition at 0.125 µM: > 90%
